# From PMC5473904, “Epigenetic and antitumor effects of platinum(IV)-octanoato conjugates” (Scientific Reports, 2017)
# Experiments:
# HCT-116 cells [1] = assay: Cellular platinum accumulation/distribution by ICP-MS; assay type: cell-based, human; settings: HCT-116, 24 h, 0.35 µM
# [2] = test system: MCF-7 human breast cancer cells; assay: MTT cytotoxicity, 72 h; assay type: cell-based; settings: platinum complexes
# Experimental: (§1) Cytotoxic activity of the compounds tested in the present work was screened on the panel of malignant and nonmalignant cell lines using the colorimetric MTT assay and 72 h of drug incubation period.
# (§2) Cell death was evaluated using a system based on the tetrazolium compound MTT [3-(4,5-dimethyl-2-thiazolyl)-2,5-diphenyl-2H-tetrazolium bromide]. The cells were seeded in 96-well tissue culture plates at a density of 10^4 A2780cisR, LNCaP, HSF cells/well, 3 × 10^3 CHO-K1 or 4 × 10^3 MCF7, HCT-116 and MRC5 pd30 cells/well in 100 μL of medium. After overnight incubation (16 h), the cells were treated with the compounds in a final volume of 200 μL/well. After additional 72 h, 10 μL of a freshly diluted MTT solution (2.5 mg mL^−1) was added to each well, and the plate was incubated at 37 °C in a humidified 5% CO2 atmosphere for 4 h. At the end of the incubation period, the medium was removed, and the formazan product was dissolved in 100 μL of DMSO. The cell viability was evaluated by measurement of the absorbance at 570 nm, using an Absorbance Reader SUNRISE TECAN SCHOELLER. IC50 values were calculated from curves constructed by plotting cell survival (%) versus drug concentration (μM). All experiments were made in triplicate. The reading values were converted to the percentage of control (% cell survival). Cytotoxic effects were expressed as IC50.
# [3] = test system: CHO-K1 Chinese hamster ovary cells; assay: MTT cytotoxicity, 72 h; assay type: cell-based; settings: platinum complexes
# Experimental: as §1, §2
# [4] = test system: A2780cisR human ovarian carcinoma cells; assay: MTT cytotoxicity, 72 h; assay type: cell-based; settings: for RF, resistance factor: IC50 (resistant, A2780cisR)/IC50 (sensitive, A2780); for IC50: MTT, 72 h, platinum complexes
# Experimental: as §1, §2
# [5] = test system: HCT-116 human colorectal carcinoma cells; assay: MTT cytotoxicity, 72 h; assay type: cell-based; settings: for IC50: MTT, 72 h, platinum complexes and decitabine
# Experimental: as §1, §2
# [6] = test system: DNMT enzymes in HCT-116 cells; assay: DNMT activity in nuclear extracts of treated cells; assay type: cell-based, human; settings: 24 h
# Experimental: In these experiments, the total activity of DNMT enzymes was determined in nuclear extracts prepared from HCT-116 cells which were treated with the platinum compounds, free OA or decitabine for 24 h (Fig. 4B).
# Human colon carcinoma cells (HCT-116) were seeded in 100 mm culture dishes at the density 1.5 × 10^6 cells/dish. Cells were harvested after 24 h of incubation with the compounds tested in the present work (1 µM). Nuclear extracts from the pellets were separated using EpiQuik Nuclear extraction kit I (Epigentek, NY) according to manufacturer’s instructions. Quantification of nuclear proteins was analyzed with the standard Bradford assay. The activity of DNMT enzymes was analyzed using the EpiQuik DNMT activity/inhibition assay Ultra kit (Epigentek, NY), according to the manufacturer´s protocol. Briefly, 10 µg of total nuclear protein was analyzed for its DNMT activity. The reaction time with a universal DNMT substrate stably coated onto microplate wells was 120 min at 37 °C. The final signal at the end of the ELISA reaction was detected at 450 nm (reference 620 nm). DNMT activity was normalized to controls and expressed in the percent or absolute values as OD h^−1 mg^−1, calculated as described in the manufacturer’s manual.
# A2780 cells = assay: Cellular platinum accumulation/distribution by ICP-MS; assay type: cell-based, human; settings: for Platinum in cytosol / Platinum in nucleus: A2780, 24 h; for Platinum in cytosol / Platinum in nucleus / Total cellular platinum accumulation: 0.35 µM; for Total cellular platinum accumulation: A2780, 24 h exposure
# Experimental: (§3) Cellular concentrations of platinum were determined by inductively coupled plasma mass spectrometry (ICP-MS) after 24 h of exposure to the complexes at the concentration of 0.35 µM.
# (§4) Cellular uptake studies were also carried out to measure the accumulation of platinum species in cytosol and nucleus. […] The platinum levels in each pool were measured by ICP-MS. The extent of accumulation of both OA conjugated Pt(IV) prodrugs into the cytosol and nucleus fractions was markedly higher than that of cisplatin or Pt(IV)diAc.
# (§5) The cells were seeded in 150 cm^2 culture flasks at a density 1 × 10^7 cells/flask (67 000 cells/cm^2). After 48-h incubation, the cells were treated with the compounds (0.35 μM) for 24 h. The attached cells were washed twice with PBS (4 °C). Seventy-five percent of cells were used for analysis of platinum bound to DNA, remaining 25% were used for estimations of cellular accumulation of platinum. Cell pellets were digested by a high-pressure microwave digestion system (MARS5, CEM) with HCl to give a fully homogenized solution, and final platinum content was determined by ICP-MS. The analysis with the aid of ICP-MS was performed using Agilent 7500 (Agilent, Japan) or Thermo Optek X Series.
# (§6) A2780 cells were seeded in 100 mm tissue culture dishes (3 × 10^6 cells) and grown for 48 h to 80–90% confluence. Cells were harvested after 24 h of treatment. Concretely, the dishes were washed two times with ice-cold PBS and the cells scraped into tubes and centrifuged for 10 min at 0 °C (200 g). The pellets were resuspended in the lysis buffer [Tris·HCl (10 mM, pH 8.0), KCl (60 mM), EDTA (1.2 mM), DTT (1 mM), phenylmethanesulfonyl fluoride (PMSF, 0.1 mM), NP-40 (0.04%)] for 10 min on ice and centrifuged for 4 min at 0 °C (800 g). Cytosolic fraction was separated for platinum ICP-MS analysis, and protein concentration was determined by Bradford assay. The pellets were rinsed with the above lysis buffer without PMSF and NP-40 and centrifuged for another 4 min at 0 °C (300 g). The pellets were resuspended in 50 µL nuclear extraction buffer [Tris·HCl (20 mM, pH 8.0), NaCl (420 mM), MgCl2 (0.7 mM), EDTA (0.25 mM), glycerol (25%)] and incubated for 30 min at 4 °C, continuously mixed on end-over-end roller, and then centrifuged for 15 min at 0 °C (13000 g). Protein concentration in nuclear extracts was determined by the Bradford assay, and stored at −80 °C until analysis.
# HCT-116 cells [7] = assay: as above; assay type: cell-based, human; settings: for Total cellular platinum accumulation: HCT-116, 24 h exposure, 0.35 µM
# Experimental: as §3, §4, §5, §6
SMILES,Platinum in cytosol (HCT-116 cells [1]) [pg Pt/µg protein],Platinum in nucleus (HCT-116 cells [1]) [pg Pt/µg protein],IC50 [2] [µM],IC50 [3] [µM],"RF, resistance factor [4]",IC50 [4] [µM],IC50 [5] [µM],"Activity of DNMT enzymes ([6]; HCT-116, 1.0 µM)",Platinum in cytosol (A2780 cells) [pg Pt/µg protein],Platinum in nucleus (A2780 cells) [pg Pt/µg protein],Total cellular platinum accumulation (A2780 cells) [ng Pt/10^6 cells],Total cellular platinum accumulation (HCT-116 cells [7]) [ng Pt/10^6 cells],"Increase of cytotoxicity vs. cisplatin ([5]; HCT-116, Fig. 2B) [x]","Increase of cytotoxicity vs. Pt(IV)diAc ([5]; HCT-116, Fig. 2D) [x]","Activity of DNMT enzymes ([6]; HCT-116, 0.5 µM)","Increase of cellular accumulation vs. cisplatin (A2780 cells; A2780, Fig. 2A) [x]","Increase of cellular accumulation vs. Pt(IV)diAc (A2780 cells; A2780, Fig. 2C) [x]","Increase of cellular accumulation vs. cisplatin (HCT-116 cells [7]; HCT-116, Fig. 2B) [x]","Increase of cellular accumulation vs. Pt(IV)diAc (HCT-116 cells [7]; HCT-116, Fig. 2D) [x]","Activity of DNMT enzymes ([6]; HCT-116, 30 µM)"
"CC(=O)[O][Pt]([NH2])([NH2])([Cl])([Cl])[O]C(C)=O [Pt(IV)diAc, cis, cis, trans-[Pt(IV)(NH3)2Cl2(Ac)2]]",2.1 ± 0.3,4.6 ± 0.5,51 ± 4,14.5 ± 0.7,4.2,22 ± 3.1,35.3 ± 1.4,no significant effect,3.0 ± 0.4,3.0 ± 0.5,0.45 ± 0.09,0.19 ± 0.04,–,–,–,–,–,–,–,–
"CCCCCCCC(=O)[O][Pt]([NH2])([NH2])([Cl])([Cl])[O]C(=O)CCCCCCC [Pt(IV)diOA, cis, cis, trans-[Pt(IV)(NH3)2Cl2(OA)2]]",59 ± 7,189 ± 9,0.038 ± 0.006,0.14 ± 0.02,0.7,0.029 ± 0.002,0.017 ± 0.003,enhanced activity of DNMT enzymes,138 ± 12,173 ± 15,12.9 ± 0.3,29.2 ± 0.3,347,2076,enhanced activity of DNMT enzymes,16,29,34,153,–
"N.N.[Cl][Pt][Cl] [cisplatin, reference compound]",3.6 ± 0.2,4.1 ± 0.3,17.4 ± 1.9,19.9 ± 1,4.9,13.8 ± 0.1,5.9 ± 0.9,no significant effect,5.5 ± 0.9,3.0 ± 0.7,0.8 ± 0.2,0.9 ± 0.1,–,–,–,–,–,–,–,no significant effect
